Measurements from PubChem BioAssay (NCI).
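GI50: concentration for 50% inhibition of growth. Definition used: TGI = concentration required for complete inhibition of growth.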

Legend:
Assay in all cases: inhibition of tumour cell growth, NCI panel, 384-well format
IGROV1 ovarian = tested on: IGROV1 ovarian
T-47D breast = tested on: T-47D breast
KM12 colon = tested on: KM12 colon
HCC-2998 colon = tested on: HCC-2998 colon
NCI-H322M lung = tested on: NCI-H322M lung
MCF7 breast = tested on: MCF7 breast
786-0 renal = tested on: 786-0 renal
UACC-257 melanoma = tested on: UACC-257 melanoma
OVCAR-8 ovarian = tested on: OVCAR-8 ovarian
SK-OV-3 ovarian = tested on: SK-OV-3 ovarian
MOLT-4 leukemia = tested on: MOLT-4 leukemia
SR leukemia = tested on: SR leukemia
EKVX NSCLC = tested on: EKVX NSCLC
RPMI-8226 leukemia = tested on: RPMI-8226 leukemia
COLO 205 colon = tested on: COLO 205 colon
ACHN renal = tested on: ACHN renal
PC-3 prostate = tested on: PC-3 prostate
HOP-62 NSCLC = tested on: HOP-62 NSCLC
RXF 393 renal = tested on: RXF 393 renal
A549 NSCLC = tested on: A549 NSCLC
CCRF-CEM leukemia = tested on: CCRF-CEM leukemia
NCI-H522 lung = tested on: NCI-H522 lung
SW-620 colon = tested on: SW-620 colon
OVCAR-3 ovarian = tested on: OVCAR-3 ovarian
MDA-MB-231 breast = tested on: MDA-MB-231 breast
UACC-62 melanoma = tested on: UACC-62 melanoma
MALME-3M melanoma = tested on: MALME-3M melanoma
SK-MEL-28 melanoma = tested on: SK-MEL-28 melanoma
UO-31 renal = tested on: UO-31 renal
BT-549 breast = tested on: BT-549 breast
M14 melanoma = tested on: M14 melanoma
CAKI-1 renal = tested on: CAKI-1 renal
SK-MEL-5 melanoma = tested on: SK-MEL-5 melanoma
HS 578T breast = tested on: HS 578T breast
HT29 colon = tested on: HT29 colon
LOX IMVI melanoma = tested on: LOX IMVI melanoma
SF-539 CNS = tested on: SF-539 CNS
HOP-92 NSCLC = tested on: HOP-92 NSCLC
SN12C renal = tested on: SN12C renal
OVCAR-5 ovarian = tested on: OVCAR-5 ovarian
MDA-MB-435 melanoma = tested on: MDA-MB-435 melanoma
TK-10 renal = tested on: TK-10 renal
OVCAR-4 ovarian = tested on: OVCAR-4 ovarian
HL-60(TB) leukemia = tested on: HL-60(TB) leukemia
A498 renal = tested on: A498 renal
SF-295 CNS = tested on: SF-295 CNS
NCI-H460 NSCLC = tested on: NCI-H460 NSCLC
DU-145 prostate = tested on: DU-145 prostate
K-562 leukemia = tested on: K-562 leukemia
HCT-15 colon = tested on: HCT-15 colon
NCI-H23 lung = tested on: NCI-H23 lung
SNB-75 CNS = tested on: SNB-75 CNS
MDA-MB-468 breast = tested on: MDA-MB-468 breast
SNB-19 CNS = tested on: SNB-19 CNS
NCI-H226 lung = tested on: NCI-H226 lung
NCI/ADR-RES ovarian = tested on: NCI/ADR-RES ovarian
SF-268 CNS = tested on: SF-268 CNS

N#Cc1cc(F)cc(Oc2ccc(S(=O)(=O)C(F)F)c3c2CC(F)(F)[C@H]3O)c1
GI50 (IGROV1 ovarian): 41.6 µM
TGI (IGROV1 ovarian): > 100 µM
GI50 (T-47D breast): 14.9 µM
TGI (T-47D breast): 67.4 µM
GI50 (KM12 colon): 34.5 µM
TGI (KM12 colon): > 100 µM
GI50 (HCC-2998 colon): 41.4 µM
TGI (HCC-2998 colon): > 100 µM
GI50 (NCI-H322M lung): 39.4 µM
TGI (NCI-H322M lung): > 100 µM
GI50 (MCF7 breast): 19.6 µM
TGI (MCF7 breast): 55.2 µM
GI50 ([…]-0 renal): 31.6 µM
TGI (786-0 renal): > 100 µM
GI50 (UACC-257 melanoma): 19.2 µM
TGI (UACC-257 melanoma): 48.7 µM
GI50 (OVCAR-8 ovarian): 28.5 µM
TGI (OVCAR-8 ovarian): > 100 µM
GI50 (SK-OV-3 ovarian): 26.2 µM
TGI (SK-OV-3 ovarian): > 100 µM
GI50 (MOLT-4 leukemia): 13.9 µM
TGI (MOLT-4 leukemia): 27.1 µM
GI50 (SR leukemia): 15.7 µM
TGI (SR leukemia): 30.5 µM
GI50 (EKVX NSCLC): 27.3 µM
TGI (EKVX NSCLC): 97.3 µM
GI50 (RPMI-8226 leukemia): 11.8 µM
TGI (RPMI-8226 leukemia): 28.9 µM
GI50 (COLO 205 colon): 38.7 µM
TGI (COLO 205 colon): > 100 µM
GI50 (ACHN renal): 33.2 µM
TGI (ACHN renal): > 100 µM
GI50 (PC-3 prostate): 29.9 µM
TGI (PC-3 prostate): > 100 µM
GI50 (HOP-62 NSCLC): 30 µM
TGI (HOP-62 NSCLC): > 100 µM
GI50 (RXF 393 renal): 21.3 µM
TGI (RXF 393 renal): 73.8 µM
GI50 (A549 NSCLC): 26.9 µM
TGI (A549 NSCLC): 86.3 µM
GI50 (CCRF-CEM leukemia): 11.6 µM
TGI (CCRF-CEM leukemia): 25.8 µM
GI50 (NCI-H522 lung): 19.8 µM
TGI (NCI-H522 lung): 61.2 µM
GI50 (SW-620 colon): 63.5 µM
TGI (SW-620 colon): > 100 µM
GI50 (OVCAR-3 ovarian): 25.1 µM
TGI (OVCAR-3 ovarian): 68.5 µM
GI50 (MDA-MB-231 breast): 25.4 µM
TGI (MDA-MB-231 breast): > 100 µM
GI50 (UACC-62 melanoma): 34.9 µM
TGI (UACC-62 melanoma): > 100 µM
GI50 (MALME-3M melanoma): 28.8 µM
TGI (MALME-3M melanoma): 93.6 µM
GI50 (SK-MEL-28 melanoma): 53.3 µM
TGI (SK-MEL-28 melanoma): > 100 µM
GI50 (UO-31 renal): 36.4 µM
TGI (UO-31 renal): > 100 µM
GI50 (BT-549 breast): 21.1 µM
TGI (BT-549 breast): 47.2 µM
GI50 (M14 melanoma): 33.7 µM
TGI (M14 melanoma): > 100 µM
GI50 (CAKI-1 renal): 38.8 µM
TGI (CAKI-1 renal): > 100 µM
GI50 (SK-MEL-5 melanoma): 15.1 µM
TGI (SK-MEL-5 melanoma): 29.4 µM
GI50 (HS 578T breast): 20 µM
TGI (HS 578T breast): 69.8 µM
GI50 (HT29 colon): 43.9 µM
TGI (HT29 colon): > 100 µM
GI50 (LOX IMVI melanoma): 20 µM
TGI (LOX IMVI melanoma): 43.1 µM
GI50 (SF-539 CNS): 33.6 µM
TGI (SF-539 CNS): > 100 µM
GI50 (HOP-92 NSCLC): 16.3 µM
TGI (HOP-92 NSCLC): 52 µM
GI50 (SN12C renal): 32.7 µM
TGI (SN12C renal): > 100 µM
GI50 (OVCAR-5 ovarian): 56.4 µM
TGI (OVCAR-5 ovarian): > 100 µM
GI50 (MDA-MB-435 melanoma): 48.4 µM
TGI (MDA-MB-435 melanoma): > 100 µM
GI50 (TK-10 renal): 38.4 µM
TGI (TK-10 renal): > 100 µM
GI50 (OVCAR-4 ovarian): 14.8 µM
TGI (OVCAR-4 ovarian): 53.2 µM
GI50 (HL-60(TB) leukemia): 18.4 µM
TGI (HL-60(TB) leukemia): 33 µM
GI50 (A498 renal): 19.8 µM
TGI (A498 renal): 44 µM
GI50 (SF-295 CNS): 30.2 µM
TGI (SF-295 CNS): > 100 µM
GI50 (NCI-H460 NSCLC): 18.1 µM
TGI (NCI-H460 NSCLC): 33.9 µM
GI50 (DU-145 prostate): 26.2 µM
TGI (DU-145 prostate): 90.6 µM
GI50 (K-562 leukemia): 18.3 µM
TGI (K-562 leukemia): > 100 µM
GI50 (HCT-15 colon): 27.8 µM
TGI (HCT-15 colon): > 100 µM
GI50 (NCI-H23 lung): 14.2 µM
TGI (NCI-H23 lung): 48.5 µM
GI50 (SNB-75 CNS): 34.4 µM
TGI (SNB-75 CNS): > 100 µM
GI50 (MDA-MB-468 breast): 8.94 µM
TGI (MDA-MB-468 breast): 26 µM
GI50 (SNB-19 CNS): 48.5 µM
TGI (SNB-19 CNS): > 100 µM
GI50 (NCI-H226 lung): 22.7 µM
TGI (NCI-H226 lung): 71.8 µM
GI50 (NCI/ADR-RES ovarian): 16.1 µM
TGI (NCI/ADR-RES ovarian): 52 µM
GI50 (SF-268 CNS): 48.6 µM
TGI (SF-268 CNS): > 100 µM
